Data reported in patent US4980343A, “Aminooxodihydroisoindoloquinazoline carcinostatic agents” (Bayer Aktiengesellschaft, priority 1989, dated 1990).
In brackets after ≈: the same amount, converted by molar mass. Entries after “also recorded” stand apart in the source; their conditions may differ. Structures can show the parent of a compound that is named as a salt.

What was measured:
[1] = stability of B in the presence of peptidases or human plasma; format: in vitro ADME; conditions: not cleaved back to A
E. coli Neumann [2] = assay: minimal inhibitory concentrations (MICs) by agar dilution method; format: cell-based
Description: The minimal inhibitory concentrations (MICs) were determined by agar dilution method. Series of agar plates with Iso-Sensitest agar (Oxoid) were prepared which contained the test substances at twofold increasing concentrations. The agar plates were inoculated by using a multipoint inoculator (Denley). For this purpose, overnight cultures of the bacterial test strains were diluted appropriately so that each inoculation point contained approx. 10^4 cells. The inoculated agar plates were incubated at 37° C. and bacterial growth was read after 20 hours.

E. coli Neumann [3] = assay: therapeutic efficacy: survival of female CF1 mice infected intraperitoneally with E. coli Neumann; format: in vivo; conditions: for survival of the animals (number of 10 mice): single dose 30 min. after infection, until sixth day
Description: To measure the therapeutic efficacy, 10 female CF1 mice each group were infected by intraperitoneal injection of 3×10^7 cells of E. coli Neumann. For treatment, one single dose of drug was given intravenously 30 min. after the infection. The survival of the animals was recorded daily until the sixth day after infection: […]

[4] = solubility in water and water containing solvents; conditions: for solubility: water
[5] = stability of 4, 6 and 12 in human plasma at 37° C.; format: in vitro ADME; conditions: for hydrolysis to 1: human plasma; for half-life: plasma
Description: (§1) A solution of approximately 2.0 mg of 4, 6 or 12 in 100 μl of water was added to 2 ml of either human or mice plasma. The resulting solution was placed in water bath at 37° C. Samples were withdrawn at appropriate time intervals and proteins were precipitated with 250 μl of acetonitrile, vortexed for 30 sec., then centrifuged for 10 min at 2200 rpm. […] Apparent first-order rate constants were obtained by plotting the disappearance the derivatives 4, 6 or 12 versus time on semilogarithmic plot and the results are shown in table 12.

[6] = stability of 4, 6 or 12 in aqueous buffered solutions (μ = 0.15); format: physicochemical
Description: The hydrolysis of 4, 6 or 12 in aqueous buffered solutions at various pH and at an ionic strength of 0.15 (NaCl) were measured by analyzing aliquots at appropriate intervals using HPLC. In the HPLC analysis both the disappearance of 4, 6 or 12 and the appearance of 1 were monitored. Rate constants were calculated from the first-order plots of the disappearance of 4, 6 or 12 versus time.

[7] = stability of 4, 6 and 12 in mice plasma at 37° C.; format: in vitro ADME; conditions: for hydrolysis to 1: mice plasma; for kobs / half-life: mice, heparin; for half-life: mouse, plasma
Description: as §1

[8] = hydrolysis of 14 and 4a in human plasma at 37.0° C.; format: in vitro ADME
Description: (§2) The hydrolysis of 14 in human plasma was studied. A solution containing 2.0 mg of 14 in 200 μl of water was mixed with 2 ml of human plasma (sodium citrate was used as anticoagulant). The resulting mixture was placed in water bath at 37.0° C. Samples were withdrawn at appropriate time intervals and proteins were precipitated with 250 μl of acetonitrile, vortexed for 30 sec, the centrifuged for 15 min at 2200 rpm. A 100 μl sample of the supernatent was mixed with 250 μl of H2 O and the resulting solution was analyzed by HPLC. […] The chemical hydrolysis of 14 (5.5×10^-5 M) in 0.05M phosphate buffer pH 7.4 and ionic strength of 0.15M (NaCl) at 37.0° C. was studied. Samples were withdrawn and analyzed at appropriate time intervals.

[9] = chemical hydrolysis of 14 in 0.05M phosphate buffer pH 7.4 at 37.0° C.; format: physicochemical; conditions: 5.5×10^-5 M, 0.05M phosphate pH 7.4, ionic strength 0.15M (NaCl)
Description: as §2

[10] = Acetate (0.05M), 25° C., pH 5.0, initial conc. 0.024 (4, 12), 0.018 (6) mg/ml
[11] = Phosphate (0.05M), 37° C., pH 7.4, initial conc. 0.02 mg/ml
[12] = acetate buffer (0.05m), pH 5, Acetate (0.05M), 25° C., pH 5.0, initial conc. 0.024 (4, 12), 0.018 (6) mg/ml, 6 and 12 estimated values (*)
[13] = phosphate buffer (0.05m), pH 7.4, Phosphate (0.05M), 25° C., pH 7.4, initial conc. 0.02 mg/ml, 4 estimated value (*)
[14] = phosphate buffer (0.05m), pH 7.4, Phosphate (0.05M), 37° C., pH 7.4, initial conc. 0.02 mg/ml
[15] = water, pH 4.5, Water, 25° C., initial conc. 10.0 mg/ml, pH 4.5 (4), 4.31 (6), 4.54 (12), estimated values (*)
[16] = water, pH 5.9, Water, 25° C., initial conc. 0.1 mg/ml, pH 5.9 (4), 5.46 (6), 6.1 (12), estimated values (*)
[17] = Phosphate (0.05M), 25° C., pH 7.4, initial conc. 0.02 mg/ml
[18] = Water, 25° C., initial conc. 0.1 mg/ml, pH 5.46 (6), 6.1 (12)
[19] = Water, 25° C., initial conc. 10.0 mg/ml, pH 4.31 (6), 4.54 (12)
[20] = concentration of obtainable aqueous solutions, hydrochloric acid salts (Example 5)

Row | Compound | hydrolysis to 1 [5] | half-life [6, 12] [days] | half-life [6, 13] [days] | half-life [6, 14] [days] | half-life [6, 15] [days] | half-life [6, 16] [days] | hydrolysis to 1 [7] | half-life [7] [h] | kobs [6, 10] [h⁻¹] | kobs [6, 11] [h⁻¹] | kobs [7] [min⁻¹] | other results
1 | CC(N)C(=O)N1CCN(c2cc3c(cc2F)c(=O)c(C(=O)O)cn3C2CC2)CC1 (centres unmarked) [B] | – | – | – | – | – | – | – | – | – | – | – | stability in the presence of peptidases or human plasma [1]: stable; MIC (E. coli Neumann [2]; Escherichia coli, E. coli Neumann, agar dilution, Iso-Sensitest agar, 37° C., 20 hours): 0.5 µg/mL (≈ 1.24 µM); effectiveness against E. coli Neumann in vitro (E. coli Neumann [2]; in words): only poorly effective; survival of the animals (number of 10 mice) (E. coli Neumann [3]; 0.06 mg/kg i.v.): 0; survival of the animals (number of 10 mice) (E. coli Neumann [3]; 0.25 mg/kg i.v.): 1; survival of the animals (number of 10 mice) (E. coli Neumann [3]; 0.5 mg/kg i.v.): 1; effectiveness against E. coli Neumann in vivo (E. coli Neumann [3]; in words): only poorly effective
2 | Nc1ccc2c(c1)CN1C(=O)c3ccccc3C1=N2 [Compound 1, aminooxodihydroisoindoloquinazoline] | – | – | – | – | – | – | – | – | – | – | – | solubility in water (in words) ([4]; water containing solvents): only poorly soluble; also recorded: nearly insoluble
3 | C[C@H](N)C(=O)Nc1ccc2c(c1)CN1C(=O)c3ccccc3C1=N2 [Compound 4, N-l-alanyl-AQ-monohydrochloride] | quantitative hydrolysis | 17.8 | > 8.33 | 6.58 | > 20 | > 20 | quantitative hydrolysis | 0.355 | 0.0016 | 0.0044 | 0.033 | kobs ([5]; human 1, citrate): 0.025 min⁻¹; kobs ([5]; human 2, citrate): 0.022 min⁻¹; half-life ([5]; human, human 1, citrate): 0.46 h; half-life ([5]; human, human 2, citrate): 0.512 h; solubility ([4]; solubility in water, hydrochloric acid salt, water (Example 5)): > 25 mg/mL
4 | C[C@H](N)C(=O)Nc1ccc2c(c1)CN1C(=O)c3ccccc3C1=N2 [Compound 4a, N-l-alanyl-AQ] | – | – | – | – | – | – | – | – | – | – | – | half-life ([8]; human plasma, FIG. 1, 4a formed from 14): ~0.333 h
5 | C[C@H](NC(=O)CN)C(=O)Nc1ccc2c(c1)CN1C(=O)c3ccccc3C1=N2 [Compound 14, L-Gly-Ala-derivative of AQ] | – | – | – | – | – | – | – | – | – | – | – | half-life ([8]; human plasma (citrate), 2.0 mg of 14 in 200 μl water + 2 ml plasma, read-out: half life of hydrolysis of 14 to 4a): 0.233 ± 0.0167 h; half-life at 55 µM [9]: 60 h

Further lines, with some results ahead:

Row | hydrolysis to 1 [5] | half-life [6, 12] [days] | half-life [6, 13] [days] | half-life [6, 14] [days] | half-life [6, 15] [days] | half-life [6, 16] [days] | hydrolysis to 1 [7] | half-life [7] [h] | Compound | kobs [6, 10] [h⁻¹] | kobs [6, 11] [h⁻¹] | kobs [7] [min⁻¹] | other results
6 | quantitative hydrolysis | 26 | 7.03 | 3.36 | 198 | 47 | quantitative hydrolysis | 0.623 | CC(C)C[C@H](N)C(=O)Nc1ccc2c(c1)CN1C(=O)c3ccccc3C1=N2 [Compound 6, N-l-leucine derivative of AQ] | 0.0011 | 0.0086 | 0.0185 | kobs ([5]; human, citrate): 0.0057 min⁻¹; half-life ([5]; human, citrate): 2.02 h; kobs [6, 17]: 0.00411 h⁻¹; kobs [6, 18]: 0.00061 h⁻¹; kobs [6, 19]: 0.000146 h⁻¹; solubility [4, 20]: > 25 mg/mL
7 | quantitative hydrolysis | 25 | 11.2 | 2.8 | 108 | 37 | quantitative hydrolysis | 2.43 | NCCCC[C@H](N)C(=O)Nc1ccc2c(c1)CN1C(=O)c3ccccc3C1=N2 [Compound 12, N-l-lysine dihydrochloride derivative of AQ] | 0.00115 | 0.0103 | 0.0048 | kobs ([5]; human, citrate): 0.005 min⁻¹; half-life ([5]; human, citrate): 2.31 h; kobs [6, 17]: 0.00258 h⁻¹; kobs [6, 18]: 0.00078 h⁻¹; kobs [6, 19]: 0.000267 h⁻¹; solubility [4, 20]: > 25 mg/mL; solubility ([4]; water solubility, dihydrochloride, freeze dried (Example 3)): > 20 mg/mL
